Read-outs that look alike come from different tables or passages of the source.
Legend:
[1] = design: method as in PK study presented in the literature; conditions: ref PK study presented in the literature; cited from earlier work
[2] = Short-term stability in human plasma at ambient temperature (≤30 °C); type: in vitro ADME; conditions: for Short-term stability, Stability [%]: human plasma, ≤30 °C, vs reference samples
Protocol: (§1) The stability of NIN and BIBF 1202 in human plasma, including in the short term, autosampler, and freeze–thaw, was evaluated for the QC samples analyzed at two concentrations, 5.00 ng/mL (LQC1) and 170.00 ng/mL (HQC), studied in six replicates per test. The short-term stability of NIN and BIBF 1202 was assessed for the samples that were stored at ambient temperature (≤30 °C) for at least two hours, which were analyzed and compared with freshly prepared samples. Autosampler stability was determined by storing samples in the autosampler at 10 ± 2 °C for at least […]. Freeze–thaw stability was examined over three cycles, in which samples were frozen at ≤−14 °C for 12 h and subsequently thawed at ambient temperature (≤30 °C).
(§2) Autosampler stability was examined by storing samples at 10 ± 2 °C for up to 48 h. No impact of three freeze–thaw cycles (freezing at ≤−14 °C and thawing at ambient temperature) was observed on the stability of NIN or BIBF 1202.

[3] = Freeze–thaw stability in human plasma, three cycles; type: in vitro ADME; conditions: for Freeze–thaw stability, Stability [%]: human plasma, 3 cycles (≤−14 °C / ambient); for Impact of freeze–thaw cycles on stability: three cycles, freezing at ≤−14 °C, thawing at ambient temperature
Protocol: as §1, §2

[4] = NIN and BIBF 1202 plasma concentrations (C0, Cmax) in patients treated with NIN, UPLC-MS/MS; type: in vivo, human; conditions: for Cmax: human, read-out: Mean Concentration Cmax; for Cmax / Mean Concentration C0: patient plasma; for Concentration in the patient sample (chromatogram): single patient sample after administration of 100 mg dose
Protocol: Whole blood was collected via standard venipuncture from 24 patients diagnosed with CTD-PPF. Patients received treatment with NIN, of whom 8 were administered a dose of 100 mg twice daily and 16 received 150 mg twice daily. Blood samples were obtained prior to the first daily NIN dose (trough concentration, C0) and 2–3 h afterward (maximum concentration, Cmax). Following collection, samples of whole blood with NIN and metabolite were centrifuged, and then plasma was stored at −70 °C. This study was approved by the Local Bioethics Committee of the National Institute of Geriatrics, Rheumatology, and Rehabilitation in Warsaw (KBT-5/3/2024).
To prepare the samples, 200 μL of plasma was spiked with 20 μL of IS (NIN-d3) and vortexed. Protein precipitation was carried out using 500 μL of chilled ACN solution after we previously neutralized the samples with 50 μL of 2 M sodium carbonate (Na2CO3). The samples were subsequently mixed on an orbital shaker (Vibrax, IKA, Staufen, Germany) for 30 s at 1800 and centrifuged for 10 min at 13,000 rpm, 3 °C. Then, 200 μL of the supernatant was transferred into autosampler vials for LC-MS/MS analysis under the conditions described in Section 2.6 and Section 2.7.
The UPLC Acquity I-class Plus system (Milford, MA, USA, Waters), equipped with a quaternary gradient pump, column oven, degasser unit, and autosampler, was used. The autosampler and column were maintained at 10 ± 2 °C and 40 ± 2 °C, respectively. The isocratic elution was carried out using a mobile phase consisting of 0.1% formic acid in water and acetonitrile (35:65, v/v). The mobile phase flowed through a Zorbax SB-C18 column (100 mm × 3.0 mm, 3.5 µm; Santa Clara, CA, USA, Agilent Technologies) at a flow rate of 0.3 mL/min. The system was equipped with an ASSY FRIT pre-column (0.2 µm, 2.1 mm; Milford, MA, USA, Waters). To prevent the carry-over effect, after the analysis, the injection needle was washed with a mixture consisting of acetonitrile, methanol, isopropyl alcohol, water, and formic acid (250:250:250:250:1, v/v/v/v/v).
Mass spectrometric analysis was performed using a XEVO-TQ-XS quadrupole mass spectrometer (Milford, MA, USA, Waters). Multiple Reaction Monitoring (MRM) chromatograms were acquired and processed with MassLynx 4.2 software (Milford, MA, USA, Waters). Ionization was carried out in positive ion mode using electrospray ionization (ESI+). MS parameters of instruments and analyzed compounds are detailed in Table 1.
The LC-MS/MS method developed and fully validated in this study was used to analyze the concentrations (C0 and Cmax) of nintedanib and its metabolite BIBF 1202 in human plasma. Twenty-four patients were treated with two doses of NIN (8 patients: 100 or 16 patients: 150 mg twice daily). In total, 48 samples were collected from patients at two time points: a morning dose at the trough level, and a dose 2–3 h (Cmax) after the morning dose administration. The concentrations of NIN and its metabolite were determined in the plasma of 24 patients (Male/Female 8:16, mean age 56.2, age range 35–75) with progressive pulmonary fibrosis associated with systemic sclerosis. The obtained results are presented in Table 7 and illustrated graphically (Figure 4).

[5] = Autosampler stability at 10 ± 2 °C; type: physicochemical, human; conditions: after 45 h
Protocol: as §1, §2

[6] = design: method as in PMID 26072676; conditions: cited from earlier work
[7] = 2 h at ambient temperature (≤30 °C)
[8] = NIN 100 mg twice daily, n = 8, 2–3 h after morning dose
[9] = NIN 150 mg twice daily, n = 16, 2–3 h after morning dose
[10] = NIN 100 mg twice daily, n = 8, trough (before first daily dose)
[11] = NIN 150 mg twice daily, n = 16, trough (before first daily dose)

Row | Compound | Time of peak plasma concentrations after administration [1] [h] | Short-term stability, Stability [%] ([2]; 4 h, HQC (170.00 ng/mL)) | Short-term stability, Stability [%] ([2]; 4 h, LQC1 (5.00 ng/mL)) | Effect of storing plasma samples on concentration [2, 7] | Effect of storing plasma samples on concentration ([2]; 4 h at ≤30 °C) | Freeze–thaw stability, Stability [%] ([3]; HQC (170.00 ng/mL)) | Freeze–thaw stability, Stability [%] ([3]; LQC1 (5.00 ng/mL)) | Impact of freeze–thaw cycles on stability [3] | Cmax [4, 8] [ng/mL] | Cmax [4, 9] [ng/mL] | Mean Concentration C0 [4, 10] [ng/mL] | Mean Concentration C0 [4, 11] [ng/mL] | Concentration in the patient sample (chromatogram) [4] [ng/mL] | Autosampler stability, Stability [%] ([5]; HQC (170.00 ng/mL)) | Autosampler stability, Stability [%] ([5]; LQC1 (5.00 ng/mL)) | Rate of diarrhea ([6]; patients who continued NIN) [%] | Rate of diarrhea ([6]; patients who initiated NIN) [%] | Short-term stability, Stability [%] ([2]; 2 h, HQC (170.00 ng/mL)) | Short-term stability, Stability [%] ([2]; 2 h, LQC1 (5.00 ng/mL))
1 | COC(=O)c1ccc2c(c1)NC(=O)/C2=C(\Nc1ccc(N(C)C(=O)CN2CCN(C)CC2)cc1)c1ccccc1 [NIN, Nintedanib] | 2 to 3 | 101.3 | 100.7 | did not cause changes | no effect | 99.7 | 94.6 | No impact | 16.5 | 28.7 | 7.33 | 18.60 | 12.3 | 100.6 | 96.4 | 60.1 | 71 |  | 
2 | CN1CCN(CC(=O)N(C)c2ccc(N/C(=C3\C(=O)Nc4cc(C(=O)O)ccc43)c3ccccc3)cc2)CC1 [BIBF 1202] |  |  |  | did not cause changes | reduction in the BIBF signal | 105.9 | 94.7 | No impact | 26.6 | 57.8 | 9.81 | 35.20 | 28.0 | 98.9 | 98.5 |  |  | 102.3 | 100.8

— publication PMC12736473, “Development and Validation of LC-MS/MS Method for Nintedanib and BIBF 1202 Monitoring in Plasma of Patients with Progressive Pulmonary Fibrosis Associated with Systemic Sclerosis” (Pharmaceutics, 2025)
